Source: the CheMixHub viscosity set

Test: xn = mol fraction of the nth substance listed

CCOS(=O)(=O)[O-].CC[N+](CC)=C(N(C)C)N(C)C + CCO
viscosity [mPa·s], 100 kPa
Conditions	x1 = 0.1001	x1 = 0.2003	x1 = 0.2998	x1 = 0.4023	x1 = 0.4998	x1 = 0.6016	x1 = 0.6979	x1 = 0.8024	x1 = 0.8974
293.15 K	2.916	5.857	11.49	20.43	32.82	54.53	82.56	121	160.5
298.15 K	2.62	5.197	9.941	17.2	27.12	43.51	64.03	91.64	119.1
303.15 K	2.373	4.64	8.688	14.71	22.61	35.19	50.61	70.75	90.75
308.15 K	2.155	4.166	7.649	12.71	19.18	29.07	40.85	55.99	70.53
313.15 K	1.964	3.765	6.793	11.08	16.48	24.39	33.63	45.19	56.15
318.15 K	1.797	3.419	6.036	9.76	14.28	20.68	27.81	36.81	45.06
323.15 K	1.649	3.118	5.43	8.634	12.47	17.74	23.62	30.6	36.93

COC(=O)c1ccccc1 + CCCCCCC
viscosity [mPa·s], 101.3 kPa
Conditions	x1 = 0.0999	x1 = 0.196	x1 = 0.3001	x1 = 0.3974	x1 = 0.5004	x1 = 0.5978	x1 = 0.6984	x1 = 0.8033	x1 = 0.9017
298.15 K	0.425	0.464	0.533	0.601	0.701	0.814	0.968	1.183	1.435
308.15 K	0.382	0.418	0.472	0.535	0.616	0.708	0.839	1.008	1.197
318.15 K	0.346	0.378	0.422	0.475	0.539	0.62	0.72	0.86	1.024

O=C(OCc1ccccc1)c1ccccc1 + CCOC(=O)c1ccccc1
298.15 K, 101 kPa
Conditions	viscosity [mPa·s]
x2 = 0.0465	8.039
x2 = 0.1549	6.898
x2 = 0.2475	6.108
x2 = 0.2973	5.695
x2 = 0.3945	4.948
x2 = 0.5054	4.309
x2 = 0.5941	3.74
x2 = 0.6906	3.249
x2 = 0.8023	2.749
x2 = 0.8963	2.371

CCCCOCCO + Cc1ccc(C)cc1
viscosity [mPa·s], 101 kPa
Conditions	298.15 K	308.15 K
x1 = 0.0541	0.566	0.647
x1 = 0.1518	0.625	0.725
x1 = 0.2496	0.695	0.817
x1 = 0.3502	0.784	0.933
x1 = 0.451	0.894	1.076
x1 = 0.5028	0.961	1.162
x1 = 0.5533	1.033	1.256
x1 = 0.6489	1.194	1.465
x1 = 0.7493	1.404	1.739
x1 = 0.8519	1.676	2.092
x1 = 0.9561	2.029	2.551

c1ccc2c(c1)CCCC2 + CCCCCCCCC
viscosity [mPa·s], 101 kPa
Conditions	x2 = 0.1063	x2 = 0.2018	x2 = 0.3066	x2 = 0.4057	x2 = 0.5014	x2 = 0.6005	x2 = 0.704	x2 = 0.7942	x2 = 0.8898
293.15 K	1.814	1.585	1.352	1.198	1.082	0.976	0.89	0.826	0.784
298.15 K	1.653	1.45	1.254	1.111	1.006	0.908	0.833	0.775	0.735
303.15 K	1.518	1.334	1.151	1.034	0.937	0.848	0.777	0.728	0.69
313.15 K	1.308	1.148	0.997	0.905	0.821	0.749	0.69	0.649	0.615
